Measured values from patent US5654451A, “Amino acids and peptides having modified C-terminals and modified N-terminals” (Magainin Pharmaceuticals Inc., priority 1995, dated 1997).
Converted amounts (≈) assume the structure as drawn.

How the values were obtained:
Assay in all cases: Antimicrobial assay (MIC, microtiter broth dilution)
Assay type in all cases: cell-based
L. fermentum = details: strain 23271
C. difficile = details: for MIC C. difficile P324: strain P324; for MIC C. difficile TTU614: strain TTU614
P. aeruginosa = details: for MIC P aeruginosa: Table I, P. aeruginosa ATCC 27853; for MIC P. aeruginosa 27853: strain 27853 (Tables II-V)
Procedure: (§1) The procedure for the antimicrobial assay is based upon the guidelines of the National Committee for Clinical Laboratory Standards, Document M7-T2, Volume 8, No. 8, 1988.
(§2) 1-5×10^5 CFUs/ml of either S. aureus ATCC 25923, E. coli ATCC 25922, P. aeruginosa ATCC 27853, or C. albicans were added to the wells in full strength Mueller Hinton broth (BBL 11443) from a mid-log culture. The inoculum is standardized spectrophotometrically at 600 nm and is verified by colony counts. The plates are incubated for 16-20 hours at 37° C., and the minimal inhibitory concentrations (MIC) for the compounds are determined. Minimal inhibitory concentration is defined as the lowest concentration of amino acid or peptide which produces a clear well in the microtiter plate.

C. albicans = details: for MIC C. albicans: Table I; for MIC C. albicans 14053: strain 14053
Procedure: as §1, §2

S. aureus = details: for MIC S. aureus: Table I, S. aureus ATCC 25923; for MIC S. aureus 29213: strain 29213 (Tables II-V)
Procedure: as §1, §2

E. coli = details: for MIC E. coli: Table I, E. coli ATCC 25922; for MIC E. coli 25922: strain 25922 (Tables II-V)
Procedure: as §1, §2

B. fragilis = details: strain 25285
M. canis = details: strain 11621
T. mentagrophytes = details: strain 18748
T. rubrum = details: strain 36262
E. floccosum = details: strain 52062
C. kefyr = details: strain 28838
C. parapsilosis = details: for MIC C. parapsilosis 10232: strain 10232; for MIC C. parapsilosis 22109: strain 22109
E. faecium = details: strain 26143
C. tropicalis = details: for MIC C. tropicalis 13803: strain 13803; for MIC C. tropicalis 28707: strain 28707
S. marcescens = details: for MIC S. marcescens 18963: strain 18963; for MIC S. marcescens 23420: strain 23420
E. faecalis = details: for MIC E. faecalis 23296: strain 23296; for MIC E. faecalis 29212: strain 29212
S. epidermidis = system: S. epidermidis
P. mirabilis = details: for MIC P. mirabilis 23147: strain 23147; for MIC P. mirabilis 24231: strain 24231
P. gingivalis = system: P. gingivalis

| Structure (SMILES) | MIC L. fermentum 23271 (L. fermentum) | MIC C. difficile P324 (C. difficile) | MIC P aeruginosa (P. aeruginosa) | MIC P. aeruginosa 27853 (P. aeruginosa) | MIC C. albicans (C. albicans) | MIC C. albicans 14053 (C. albicans) | MIC S. aureus (S. aureus) | MIC S. aureus 29213 (S. aureus) | MIC E. coli (E. coli) | MIC E. coli 25922 (E. coli) | MIC B. fragilis 25285 (B. fragilis) | MIC M. canis 11621 (M. canis) | MIC T. mentagrophytes 18748 (T. mentagrophytes) | MIC T. rubrum 36262 (T. rubrum) | MIC E. floccosum 52062 (E. floccosum) | MIC C. kefyr 28838 (C. kefyr) | MIC C. parapsilosis 10232 (C. parapsilosis) | MIC C. parapsilosis 22109 (C. parapsilosis) | MIC C. tropicalis 13803 (C. tropicalis) | MIC C. tropicalis 28707 (C. tropicalis) | other results |
| --- | --- | --- | --- | --- | --- | --- | --- | --- | --- | --- | --- | --- | --- | --- | --- | --- | --- | --- | --- | --- | --- |
| NC(N)=NC(Cc1ccccc1)C(=O)NCCCCCCCNC(=O)C(Cc1ccccc1)N=C(N)N (stereo not drawn) [Compound 6, 1,7-[bis-N-α-amidino-phenylalanyl]diaminoheptane] | 64 µg/mL (≈ 126 µM) | 128 µg/mL (≈ 252 µM) | > 256 µg/mL | > 256 µg/mL | 256 µg/mL (≈ 503 µM) | 256 µg/mL (≈ 503 µM) | 64 µg/mL (≈ 126 µM) | 64,128 μg/ml | > 256 µg/mL | > 256 µg/mL | 256 µg/mL (≈ 503 µM) | – | – | – | – | – | – | – | – | – | – |
| N=C(N)NCCCCCCCCCCCCNC(=N)N [Compound 36, 1,12 [bisguanyl]diaminododecane] | – | – | 128 µg/mL (≈ 450 µM) | 128 µg/mL (≈ 450 µM) | 32 µg/mL (≈ 112 µM) | 4,32 μg/ml | 8 µg/mL (≈ 28.1 µM) | 8 µg/mL (≈ 28.1 µM) | 32 µg/mL (≈ 112 µM) | 32 µg/mL (≈ 112 µM) | – | – | – | – | – | 4 µg/mL (≈ 14.1 µM) | 0.5 µg/mL (≈ 1.76 µM) | 4 µg/mL (≈ 14.1 µM) | 0.5 µg/mL (≈ 1.76 µM) | ≤ 0.25 µg/mL | – |
| NC(N)=NC(Cc1ccccc1)C(=O)NCCCCCCCCCCCCNC(=O)C(Cc1ccccc1)N=C(N)N (stereo not drawn) [Compound 3, 1,12-[bis-N-α-amidino-phenylalanyl]diaminododecane] | – | – | 8 µg/mL (≈ 13.8 µM) | 4,32 μg/ml | 4 µg/mL (≈ 6.91 µM) | 4 µg/mL (≈ 6.91 µM) | 1 µg/mL (≈ 1.73 µM) | 1 µg/mL (≈ 1.73 µM) | 4 µg/mL (≈ 6.91 µM) | 4 µg/mL (≈ 6.91 µM) | – | 32 µg/mL (≈ 55.3 µM) | 16 µg/mL (≈ 27.6 µM) | 16 µg/mL (≈ 27.6 µM) | 16 µg/mL (≈ 27.6 µM) | 2 µg/mL (≈ 3.46 µM) | 2 µg/mL (≈ 3.46 µM) | 2 µg/mL (≈ 3.46 µM) | 2 µg/mL (≈ 3.46 µM) | 0.5 µg/mL (≈ 0.864 µM) | MIC E. faecium 26143 (E. faecium): 2 µg/mL (≈ 3.46 µM); MIC P. gingivalis 9-14K-1 (P. gingivalis; strain 9-14K-1): 4 µg/mL (≈ 6.91 µM); MIC P. gingivalis 381 (P. gingivalis; strain 381): 4 µg/mL (≈ 6.91 µM); MIC P. gingivalis A7A1-28 (P. gingivalis; strain A7A1-28): 4 µg/mL (≈ 6.91 µM); MIC P. gingivalis FAY-19M-1 (P. gingivalis; strain FAY-19M-1): 4 µg/mL (≈ 6.91 µM); MIC P. gingivalis W50 (P. gingivalis; strain W50): 4 µg/mL (≈ 6.91 µM); MIC S. marcescens 18963 (S. marcescens): 64 µg/mL (≈ 111 µM); MIC S. marcescens 23420 (S. marcescens): > 256 µg/mL; MIC E. faecalis 19052 (E. faecalis; strain 19052): 1,2 μg/ml; MIC E. faecalis 19290 (E. faecalis; strain 19290): 1,2 μg/ml; MIC E. faecalis 23296 (E. faecalis): 1,2 μg/ml; MIC E. faecalis 29212 (E. faecalis): 1,2 μg/ml; MIC P. mirabilis 23147 (P. mirabilis): > 256 µg/mL; MIC P. mirabilis 24231 (P. mirabilis): > 256 µg/mL |
| N=C(N)NC(Cc1ccccc1)C(=O)Nc1ccc(C=Cc2ccc(NC(=O)C(N)Cc3ccccc3)cc2)cc1 (stereo not drawn) [Compound 24, 4-(N-α-amidino-phenylalanyl)-4'-phenylalanyl-diaminostilbene] | 4 µg/mL (≈ 7.32 µM) | – | – | 32,64 μg/ml | – | 256 µg/mL (≈ 468 µM) | – | – | – | 16 µg/mL (≈ 29.3 µM) | 8 µg/mL (≈ 14.6 µM) | – | – | – | – | – | – | – | – | – | MIC C. difficile TTU614 (C. difficile): 16 µg/mL (≈ 29.3 µM) |

Now from value to compound, other results behind:

| MIC L. fermentum 23271 (L. fermentum) | MIC C. difficile P324 (C. difficile) | MIC P aeruginosa (P. aeruginosa) | MIC P. aeruginosa 27853 (P. aeruginosa) | MIC C. albicans (C. albicans) | MIC C. albicans 14053 (C. albicans) | MIC S. aureus (S. aureus) | MIC S. aureus 29213 (S. aureus) | MIC E. coli (E. coli) | MIC E. coli 25922 (E. coli) | MIC B. fragilis 25285 (B. fragilis) | MIC M. canis 11621 (M. canis) | MIC T. mentagrophytes 18748 (T. mentagrophytes) | MIC T. rubrum 36262 (T. rubrum) | MIC E. floccosum 52062 (E. floccosum) | MIC C. kefyr 28838 (C. kefyr) | MIC C. parapsilosis 10232 (C. parapsilosis) | MIC C. parapsilosis 22109 (C. parapsilosis) | MIC C. tropicalis 13803 (C. tropicalis) | MIC C. tropicalis 28707 (C. tropicalis) | Structure (SMILES) | other results |
| --- | --- | --- | --- | --- | --- | --- | --- | --- | --- | --- | --- | --- | --- | --- | --- | --- | --- | --- | --- | --- | --- |
| – | – | – | 256 µg/mL (≈ 482 µM) | – | 32 µg/mL (≈ 60.3 µM) | – | 4 µg/mL (≈ 7.54 µM) | – | 16 µg/mL (≈ 30.1 µM) | – | 32 µg/mL (≈ 60.3 µM) | 4 µg/mL (≈ 7.54 µM) | 16 µg/mL (≈ 30.1 µM) | 16 µg/mL (≈ 30.1 µM) | – | – | – | – | – | NC(Cc1ccc(F)cc1)C(=O)NCCCCCCCCCCCCNC(=O)C(N)Cc1ccc(F)cc1 (stereo not drawn) [Compound 19] | – |
| 1 µg/mL (≈ 1.63 µM) | 2 µg/mL (≈ 3.25 µM) | 8 µg/mL (≈ 13 µM) | 8,16 μg/ml | 16 µg/mL (≈ 26 µM) | 2,64 μg/ml | 2 µg/mL (≈ 3.25 µM) | – | 4 µg/mL (≈ 6.51 µM) | 2,16 μg/ml | 2 µg/mL (≈ 3.25 µM) | 4 µg/mL (≈ 6.51 µM) | 4 µg/mL (≈ 6.51 µM) | 8 µg/mL (≈ 13 µM) | 4 µg/mL (≈ 6.51 µM) | 1 µg/mL (≈ 1.63 µM) | 1,2 μg/ml | 1 µg/mL (≈ 1.63 µM) | 2 µg/mL (≈ 3.25 µM) | 0.5 µg/mL (≈ 0.813 µM) | N=C(N)NC(Cc1ccc(F)cc1)C(=O)NCCCCCCCCCCCCNC(=O)C(Cc1ccc(F)cc1)NC(=N)N (stereo not drawn) [Compound 11, 1,12-[bis-N-α-amidino-p-fluoro-phenylalanyl]diaminododecane] | MIC E. faecium 26143 (E. faecium): 1 µg/mL (≈ 1.63 µM); MIC C. difficile TTU614 (C. difficile): 4 µg/mL (≈ 6.51 µM); MIC P. aeruginosa 1133 (P. aeruginosa; strain 1133): 32 µg/mL (≈ 52.1 µM); MIC P. aeruginosa El Salvador (P. aeruginosa; strain El Salvador): 128 µg/mL (≈ 208 µM); MIC S. aureus 1093 (S. aureus; strain 1093): 2 µg/mL (≈ 3.25 µM); MIC S. aureus 1096 (S. aureus; strain 1096): 2 µg/mL (≈ 3.25 µM); MIC S. marcescens 18963 (S. marcescens): 16 µg/mL (≈ 26 µM); MIC S. marcescens 23420 (S. marcescens): > 256 µg/mL; MIC E. faecalis 23296 (E. faecalis): 1 µg/mL (≈ 1.63 µM); MIC E. faecalis 29212 (E. faecalis): 1 µg/mL (≈ 1.63 µM); MIC S. epidermidis 1050 (S. epidermidis; strain 1050): 1 µg/mL (≈ 1.63 µM); MIC S. epidermidis 1090 (S. epidermidis; strain 1090): 2 µg/mL (≈ 3.25 µM); MIC P. mirabilis 23147 (P. mirabilis): > 256 µg/mL; MIC P. mirabilis 24231 (P. mirabilis): 7256 µg/mL (≈ 11800 µM) |
| 4,8 μg/ml | 4 µg/mL (≈ 6.55 µM) | 128 µg/mL (≈ 210 µM) | 128 µg/mL (≈ 210 µM) | > 256 µg/mL | 128,256 μg/ml | 2 µg/mL (≈ 3.27 µM) | 2,4 μg/ml | 128 µg/mL (≈ 210 µM) | 64,256 μg/ml | 256 µg/mL (≈ 419 µM) | – | – | – | – | – | – | – | – | – | N=C(N)NC(Cc1ccc(O)cc1)C(=O)NCCCCCCCCCCCCNC(=O)C(Cc1ccc(O)cc1)NC(=N)N (stereo not drawn) [Compound 4, 1,12-[bis-N-α-amidino-tyrosyl)diaminododecane] | MIC C. difficile TTU614 (C. difficile): 32 µg/mL (≈ 52.4 µM) |
